This is an account of results in US9403832B2, “Pyrazolo[1,5-a]pyrimidine-based compounds, compositions comprising them, and methods of their use” (Lexicon Pharmaceuticals, Inc., priority 2012, dated 2016).

T1 sequence (Q2M2I8 1-863 isoform Q2M2I8-2): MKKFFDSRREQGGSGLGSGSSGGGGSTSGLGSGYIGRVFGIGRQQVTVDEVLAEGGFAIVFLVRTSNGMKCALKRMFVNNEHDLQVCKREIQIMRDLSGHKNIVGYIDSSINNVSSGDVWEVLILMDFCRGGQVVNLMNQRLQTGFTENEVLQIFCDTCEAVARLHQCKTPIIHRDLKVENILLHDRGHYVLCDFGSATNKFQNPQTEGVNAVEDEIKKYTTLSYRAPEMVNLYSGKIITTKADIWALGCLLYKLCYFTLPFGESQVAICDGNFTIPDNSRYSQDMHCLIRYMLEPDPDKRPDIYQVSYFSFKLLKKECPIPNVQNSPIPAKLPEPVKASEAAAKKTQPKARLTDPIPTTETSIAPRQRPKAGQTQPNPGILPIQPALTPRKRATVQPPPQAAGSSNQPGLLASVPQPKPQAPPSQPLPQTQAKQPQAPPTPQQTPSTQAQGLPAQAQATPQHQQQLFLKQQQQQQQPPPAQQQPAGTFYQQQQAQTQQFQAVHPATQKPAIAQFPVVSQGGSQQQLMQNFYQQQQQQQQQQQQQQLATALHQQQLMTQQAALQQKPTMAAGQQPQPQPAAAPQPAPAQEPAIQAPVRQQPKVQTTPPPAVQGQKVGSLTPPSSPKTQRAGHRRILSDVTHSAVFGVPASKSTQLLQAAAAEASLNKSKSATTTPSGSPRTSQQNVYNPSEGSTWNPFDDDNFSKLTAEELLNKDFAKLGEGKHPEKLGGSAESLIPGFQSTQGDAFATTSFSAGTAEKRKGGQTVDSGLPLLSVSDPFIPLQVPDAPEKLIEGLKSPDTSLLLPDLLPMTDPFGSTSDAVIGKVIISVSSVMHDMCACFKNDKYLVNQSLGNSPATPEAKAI

This assay has as its target T1, AAK1 (Homo sapiens, UniProt Q2M2I8).
T1 construct: NP_055726.2
In words: P81 filter plate assay. Conditions: full-length human AAK1, Mu2 substrate, 33P-ATP. The format is biochemical. Here is the method: Compounds were serially diluted into a Labcyte LDV plate (Labcyte, cat#LP-0200) using a Mutiprobe (PerkinElmer) and Biomek FX (Beckman Coulter) so that the highest compound concentration was at 96 μM. Compounds were then pinged (75 nL per well) into a Greiner 384-well reaction plate (Greiner, #781076) using an ECHO 550 Liquid Handler (Labcyte). A total of 12 μl reaction buffer (IMAP buffer containing Tween and DTT, from Molecular Devices) was then added to each well of columns 1 and 13 for the negative controls and 12 μl of 2× AAK1 (0.2 nM full-length human protein, NCBI accession no. NP_055726.2) was added to the remaining wells. Enzyme was then pre-incubated with compound for 10 minutes at RT. Reactions were initiated upon Minitrak (PerkinElmer) addition of 12 μl substrate mix containing 2× Mu2 (0.2 μM, full length human protein), 2× cold ATP (2 μM), and 1.3 μCi of hot ^33P-ATP. […] proceeded for one hour at RT. Meanwhile, Millipore 384-well P81 filter plates (Millipore, catalog #MZPHNOW10) were placed on a plate washer (Zoom ZW, from Titertek) and pre-wet with 50 μl 1% phosphoric acid. Kinase reactions were then stopped upon addition of 24 μl of 2% phosphoric acid to each well and the Minitrak was then used to transfer 40 μl from each well into the pre-wet Millipore 384-well P81 filter plates. Reaction mixtures were incubated for 10 minutes at RT in the P81 plates, followed by washing five times with 100 μl/well of 1% phosphoric acid using the Zoom filter washer. The bottom of each filter plate was sealed followed by addition of 20 μl Microscint 40 to each well, sealing the top of the plates with Flashplate cover, and then waiting one hour until reading on the TopCount (PerkinElmer).
For `COc1ncccc1-c1cnn2ccc(N3CCN4C(=O)N(CC(C)C)CC4C3)nc12` (centres unmarked) [2-isobutyl-7-(3-(2-methoxypyridin-3-yl)pyrazolo[1,5-a]pyrimidin-5-yl)hexahydroimidazo[1,5-a]pyrazin-3(2H)-one], the IC50 (commonly the midpoint of a concentration-inhibition curve) is ≤ 10 nM.

With `CC(C)OC(=O)N1CCN(c2ccn3ncc(-c4cccc5nccn45)c3n2)CC1` [isopropyl 4-(3-(imidazo[1,2-a]pyridin-5-yl)pyrazolo[1,5-a]pyrimidin-5-yl)piperazine-1-carboxylate], the IC50 is ≤ 100 nM.

With `COc1ccc(-c2cnn3ccc(N4CCN(C(=O)OC(C)C)CC4)nc23)c(F)n1` [isopropyl 4-(3-(2-fluoro-6-methoxypyridin-3-yl)pyrazolo[1,5-a]pyrimidin-5-yl)piperazine-1-carboxylate], the IC50 was ≤ 100 nM.

As to `COc1ncc(F)cc1-c1cnn2ccc(N3CCN(CCC(F)(F)F)CC3)nc12` [3-(5-fluoro-2-methoxypyridin-3-yl)-5-(4-(3,3,3-trifluoropropyl)piperazin-1-yl)pyrazolo[1,5-a]pyrimidine], the IC50 was ≤ 1000 nM.

As to `COCC(COC)OC(=O)N1CCN(c2ccn3ncc(-c4cccnc4OC)c3n2)CC1` [1,3-dimethoxypropan-2-yl 4-(3-(2-methoxypyridin-3-yl)pyrazolo[1,5-a]pyrimidin-5-yl)piperazine-1-carboxylate], the IC50 was ≤ 100 nM.

Regarding `COc1ncccc1-c1cnn2ccc(N3CCN(C(=O)[C@@H]4COCCN4)CC3)nc12` [(S)-(4-(3-(2-methoxypyridin-3-yl)pyrazolo[1,5-a]pyrimidin-5-yl)piperazin-1-yl)(morpholin-3-yl)methanone], the IC50 is ≤ 10 nM.

As to `COc1c(F)cccc1-c1cnn2ccc(N3CCN(C(=O)OC(C)C)CC3)nc12` [isopropyl 4-(3-(3-fluoro-2-methoxyphenyl)pyrazolo[1,5-a]pyrimidin-5-yl)piperazine-1-carboxylate], the IC50 is ≤ 100 nM.

`COc1ncccc1-c1cnn2ccc(-n3cnc(CO)c3)nc12` [(1-(3-(2-methoxypyridin-3-yl)pyrazolo[1,5-a]pyrimidin-5-yl)-1H-imidazol-4-yl)methanol]: the IC50 was ≤ 100 nM.

Turning to `FC(F)(F)CN1CCN(c2ccn3ncc(Br)c3n2)CC1` [3-bromo-5-(4-(2,2,2-trifluoroethyl)piperazin-1-yl)pyrazolo[1,5-a]pyrimidine], the IC50 is ≤ 100 nM.

In the case of `COc1cc(-c2cnn3ccc(N4CCN(C(=O)OC(C)C)CC4)nc23)ccn1` [isopropyl 4-(3-(2-methoxypyridin-4-yl)pyrazolo[1,5-a]pyrimidin-5-yl)piperazine-1-carboxylate], the IC50 was ≤ 100 nM.

Regarding `COCCOC(=O)N1CCN(c2ccn3ncc(-c4cccnc4OC)c3n2)CC1` [2-methoxyethyl 4-(3-(2-methoxypyridin-3-yl)pyrazolo[1,5-a]pyrimidin-5-yl)piperazine-1-carboxylate], the IC50 was ≤ 10 nM.

For `COc1ncc(F)cc1-c1cnn2ccc(N3CC[C@H](N(C)C(=O)OC(C)C)C3)nc12` [(S)-isopropyl (1-(3-(5-fluoro-2-methoxypyridin-3-yl)pyrazolo[1,5-a]pyrimidin-5-yl)pyrrolidin-3-yl)(methyl)carbamate], the IC50 is ≤ 100 nM.

As to `CCOc1ncccc1-c1cnn2ccc(N3CCN(C(=O)OCCOC)CC3)nc12` [2-methoxyethyl 4-(3-(2-ethoxypyridin-3-yl)pyrazolo[1,5-a]pyrimidin-5-yl)piperazine-1-carboxylate], the IC50 is ≤ 10 nM.

On to `CC(C)OC(=O)N1CCN(c2ccn3ncc(-c4cccnc4OCCN(C)C)c3n2)CC1` [isopropyl 4-(3-(2-(2-(dimethylamino)ethoxy)pyridin-3-yl)pyrazolo[1,5-a]pyrimidin-5-yl)piperazine-1-carboxylate], for which the IC50 was ≤ 100 nM.

On to `COc1ncccc1-c1cnn2ccc(N3CCN(C(=O)[C@H](N)CC(C)C)CC3)nc12` [(R)-2-amino-1-(4-(3-(2-methoxypyridin-3-yl)pyrazolo[1,5-a]pyrimidin-5-yl)piperazin-1-yl)-4-methylpentan-1-one], for which the IC50 is ≤ 100 nM.

`COc1ncc(F)cc1-c1cnn2ccc(N(C)CCN(C)C(=O)OC(C)C)nc12` [isopropyl (2-((3-(5-fluoro-2-methoxypyridin-3-yl)pyrazolo[1,5-a]pyrimidin-5-yl)(methyl)amino)ethyl)(methyl)carbamate]: the IC50 was ≤ 10 nM.

For `COCCOCCOC(=O)N1CCN(c2ccn3ncc(-c4cccnc4OC)c3n2)CC1` [2-(2-methoxyethoxy)ethyl 4-(3-(2-methoxypyridin-3-yl)pyrazolo[1,5-a]pyrimidin-5-yl)piperazine-1-carboxylate], the IC50 was ≤ 100 nM.

For `CC(C)C[C@H](N)C(=O)N1CCN(c2ccn3ncc(Cl)c3n2)CC1` [(S)-2-amino-1-(4-(3-chloropyrazolo[1,5-a]pyrimidin-5-yl)piperazin-1-yl)-4-methylpentan-1-one], the IC50 is ≤ 100 nM.

In the case of `COc1ncccc1-c1cnn2ccc(OCCN(C)C(=O)OC(C)(C)C)nc12` [tert-butyl (2-((3-(2-methoxypyridin-3-yl)pyrazolo[1,5-a]pyrimidin-5-yl)oxy)ethyl)(methyl)carbamate], the IC50 is ≤ 10 nM.

On to `COCc1cn(-c2ccn3ncc(-c4cccnc4OC)c3n2)cn1` [5-(4-(methoxymethyl)-1H-imidazol-1-yl)-3-(2-methoxypyridin-3-yl)pyrazolo[1,5-a]pyrimidine], for which the IC50 is ≤ 100 nM.

On to `COc1ncc(F)cc1-c1cnn2ccc(N3CCN(C(=O)OC(C)C)CC3)nc12` [isopropyl 4-(3-(5-fluoro-2-methoxypyridin-3-yl)pyrazolo[1,5-a]pyrimidin-5-yl)piperazine-1-carboxylate], for which the IC50 was ≤ 10 nM.

Regarding `CC(C)OC(=O)N1CCN(c2ccn3ncc(-c4cccnc4F)c3n2)CC1` [isopropyl 4-(3-(2-fluoropyridin-3-yl)pyrazolo[1,5-a]pyrimidin-5-yl)piperazine-1-carboxylate], the IC50 was ≤ 10 nM.

On to `CC(C)(C)OC(=O)N1CCC[C@H]1CNc1ccn2ncc(-c3ccccc3)c2n1` [(S)-tert-butyl 2-(((3-phenylpyrazolo[1,5-a]pyrimidin-5-yl)amino)methyl)pyrrolidine-1-carboxylate], for which the IC50 was ≤ 10 nM.

With `[2H]C1([2H])N(C(=O)OC(C)C)C([2H])([2H])C([2H])([2H])N(c2ccn3ncc(Br)c3n2)C1([2H])[2H]` [isopropyl 4-(3-bromopyrazolo[1,5-a]pyrimidin-5-yl)-d8-piperazine-1-carboxylate], the IC50 is ≤ 100 nM.

Consider `COc1ncccc1-c1cnn2ccc(N3CCN(CC(F)(F)F)CC3)nc12` [3-(2-methoxypyridin-3-yl)-5-(4-(2,2,2-trifluoroethyl)piperazin-1-yl)pyrazolo[1,5-a]pyrimidine], for which the IC50 is ≤ 100 nM.

With `Cc1ccc(-c2cnn3ccc(N4CCN(C(=O)OC(C)C)CC4)nc23)c(=O)n1C` [isopropyl 4-(3-(1,6-dimethyl-2-oxo-1,2-dihydropyridin-3-yl)pyrazolo[1,5-a]pyrimidin-5-yl)piperazine-1-carboxylate], the IC50 is ≤ 10 nM.
